# Where a name gives a salt, the structure may show the parent alone. Read-outs that look alike come from different tables or passages of the source.
# What was measured:
# Type in all cases: biochemical
# CatG = target: T1, CatG (Homo sapiens, UniProt P08311); assay: Jump dilution, determination of inhibition type; set-up: Cathepsin G (cathepsin G human neutrophil, Sigma-Aldrich); purchased Sigma-Aldrich; conditions: inhibitor at 10 times IC50, 15 min, diluted 10-fold or 100-fold; Rev./Irrev.
# T1 sequence (P08311 21-255): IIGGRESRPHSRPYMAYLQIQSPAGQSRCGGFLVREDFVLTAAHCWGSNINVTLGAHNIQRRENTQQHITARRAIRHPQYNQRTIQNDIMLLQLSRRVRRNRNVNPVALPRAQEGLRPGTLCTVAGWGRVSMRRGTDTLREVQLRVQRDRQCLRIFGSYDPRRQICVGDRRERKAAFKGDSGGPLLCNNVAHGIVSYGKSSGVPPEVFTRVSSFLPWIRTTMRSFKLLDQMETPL
# Method: The dissociation of the enzyme-inhibitor complex was monitored by substrate hydrolysis over time ([Joossens et al., 2006]).
# Because ABPs are designed to be irreversible serine protease inhibitors, the IC50 is exclusively used as a first discriminatory evaluation. When an inhibitor is irreversible, its IC50 value not only depends on the substrate and enzyme concentration but also on the time of incubation with the enzyme before the reaction is started by adding the substrate. […] The progress curve in the presence of an irreversible inhibitor will show final velocities equal to zero (Figure 6C). In contrast, for a reversible inhibitor, progress curves have a non-zero final steady-state velocity (Figure 6A) ([McWhirter, 2021]). To corroborate the inhibitory mechanism of the compounds, jump-dilution assays were performed. These use an inhibitor concentration of 10-fold the IC50 for the incubation, and a posteriori, the reaction mixture is diluted 10-fold or 100-fold before adding the substrate. In the case of an irreversible inhibitor, enzymatic activity is not regained (Figure 6D), whereas, in the case of a reversible compound, a slow release of the inhibitor and a gradual increase of the enzymatic activity rate is observed (Figure 6B) ([Copeland, 2013]; [McWhirter, 2021]). The jump-dilution assays confirmed the behavior described by the progress curves.
# 2.2.2 Jump dilution results
# Supplementary Table 2. Jump dilution of selected alkyne and desthiobiotin probes against a panel of trypsin-like serine proteases. […]
# # R R DtBa 3 tryptase Thrombin uPA CatG
# 32b H Alk Irrev. Irrev. Rev. Irrev. Rev.
# 45b DtB Irrev. Irrev. Rev. N.D. N.D.
# 33b Alk Irrev. Irrev. Rev. Irrev. Rev.
# 46b Cl DtB Irrev. Irrev. Rev. N.D. N.D.
# 34b H Alk Rev. Rev. Rev. Irrev. Rev.
# 50b DtB Rev. Rev. Rev. Irrev. Rev.
# 35b Alk Rev. Rev. Rev. Irrev. Rev.
# 52b NHCOMe DtB Rev. Rev. Rev. Irrev. Rev.
# 36b Alk Rev. Rev. Rev. Irrev. Rev.
# 54b Cl DtB Rev. Rev. Rev. Irrev. Rev.
# 37b Alk Irrev. Irrev. N.D. Irrev. Irrev.
# 55b H DtB Irrev. Irrev. N.D. Irrev. Irrev.
# 38b Alk Irrev. Irrev. N.D. Irrev. Irrev.
# 56b NHCOMe DtB Irrev. Irrev. N.D. Irrev. Irrev.
# 39b Alk Irrev. Irrev. N.D. Irrev. Rev.
# 57b Cl DtB Irrev. Irrev. N.D. Irrev. Rev.
# 41b H Alk Irrev. Irrev. Irrev. N.D. N.D.
# 31b Pro-Lys H Alk Irrev. Irrev. Irrev. Irrev. N.D. a Alk: ABP precursor bearing an alkyne; DtB: desthiobiotin probe b Panel of serine proteases abbreviations: urokinase plasminogen activator (uPA), cathepsin G (catG) N.D.: IC50 is greater than 10µM, and jump dilution was not performed
# 2.2.3 Progress curves and Jump dilution experiments
# Kinetic assays were performed in the following manner. The inhibitor was mixed with the substrate, and the buffer solution with the enzyme was added at the time zero. The progress curves show the release of para-nitroaniline (pNA) or 7-amino-4-methyl coumarin (AMC) as a function of time.
# To monitor the dissociation of the inhibitor-enzyme, aliquots of the enzyme were incubated at 37 °C without and with the inhibitor at a concentration 10 times higher than its IC 50. The enzyme […]
# min, the aliquots were diluted 10-fold or 100-fold into the substrate concentration and assay buffer used for the IC50 determination. The dissociation of the enzyme-inhibitor complex was monitored by substrate hydrolysis over time. Blue lines represent the control where no inhibitor was present. Pink lines represent the assay with inhibitor.
# [1] = target: T2, β-tryptase (recombinant tryptase β-2) (Homo sapiens, UniProt P20231); assay: IC50 determination, spectrophotometric protease assay
# T2 construct: purchased EnzoLife Sciences
# T2 sequence (P20231 31-275): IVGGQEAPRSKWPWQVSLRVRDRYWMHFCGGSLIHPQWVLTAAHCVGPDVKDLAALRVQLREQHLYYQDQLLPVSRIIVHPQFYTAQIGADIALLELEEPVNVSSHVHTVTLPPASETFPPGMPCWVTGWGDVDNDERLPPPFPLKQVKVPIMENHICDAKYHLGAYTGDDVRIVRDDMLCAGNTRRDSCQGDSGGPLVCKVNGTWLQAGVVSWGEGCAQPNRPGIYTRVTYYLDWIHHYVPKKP
# Method: (§1) The IC50 values were determined using a spectrophotometric assay. All the experiments were conducted in duplicate. The readout consisted of evaluating the protease-mediated release of the chromophore para-nitroaniline (pNA) or fluorophore 7-amino-4-methyl coumarin (AMC) moieties from the respective substrates. Enzymatic activity was measured for 30 min at 37°C. All compounds were initially screened at three concentrations (10, 1, and .1 μM) to estimate the range of the IC50 value. Those which were able to reduce protease activity by at least 50% at a concentration of 10 μM were submitted to an exact IC50 determination. […] A third independent experiment was performed when the standard deviation of the two independent experiments was higher than […]. IC50 values were obtained by fitting the data with the four-parameter logistics equation using GraphPad Prism 9.
# (§2) The conditions for each protease are described as follows, the concentration of substrate used was at the corresponding Km.
# [2] = target: T3, uPA (recombinant urokinase plasminogen activator) (Homo sapiens, UniProt P00749); assay: as above
# T3 construct: purchased HYPHEN BioMed
# Method: as §1, §2
# [3] = target: T4, Thrombin (recombinant thrombin) (Homo sapiens, UniProt P00734); assay: as above
# T4 construct: purchased R&D
# Method: as §1, §2
# [4] = target: T5, Cathepsin G (cathepsin G human neutrophil) (Homo sapiens, UniProt P08311); assay: as above
# T5 construct: Cathepsin G (cathepsin G human neutrophil, Sigma-Aldrich); purchased Sigma-Aldrich; host or cells: human neutrophil
# T5 sequence (P08311 21-255): T1 sequence (P08311 21-255)
# Method: as §1, §2
# [5] = target: T6, Trypsin-3 (recombinant trypsin-3) (Homo sapiens, UniProt P35030); assay: as above
# T6 construct: purchased R&D
# T6 sequence (P35030 1-304): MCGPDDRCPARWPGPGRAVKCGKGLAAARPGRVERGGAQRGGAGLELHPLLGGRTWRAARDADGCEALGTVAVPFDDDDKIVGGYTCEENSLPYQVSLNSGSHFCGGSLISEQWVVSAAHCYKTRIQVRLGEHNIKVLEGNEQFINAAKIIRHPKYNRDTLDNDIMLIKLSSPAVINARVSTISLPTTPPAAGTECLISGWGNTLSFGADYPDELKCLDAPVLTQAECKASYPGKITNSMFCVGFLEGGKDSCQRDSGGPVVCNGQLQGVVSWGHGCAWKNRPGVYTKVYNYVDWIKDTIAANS
# Method: as §1, §2
# [6] = target: T7, TLCK-treated pancreatic bovine chymotrypsin (Bos taurus, UniProt P00766); assay: as above
# T7 construct: TLCK-treated pancreatic bovine chymotrypsin (Sigma-Aldrich); purchased Sigma-Aldrich; host or cells: bovine pancreas
# Method: as §1, §2
# [7] = read-out: β-tryptase IC50, desthiobiotin probes, 15 min preincubation at 37°C, mean ± SD
# [8] = read-out: uPA IC50, desthiobiotin probes, 15 min preincubation at 37°C, mean ± SD
# [9] = read-out: Thrombin IC50, desthiobiotin probes, 15 min preincubation at 37°C, mean ± SD
# [10] = read-out: CatG IC50, desthiobiotin probes, 15 min preincubation at 37°C, mean ± SD
# [11] = read-out: Trypsin-3 IC50, desthiobiotin probes, 15 min preincubation at 37°C, mean ± SD
# [12] = read-out: ChTryp IC50, desthiobiotin probes, 15 min preincubation at 37°C, mean ± SD
# [13] = alkyne probes, 15 min preincubation at 37°C, mean ± SD
Compound,CatG jump dilution result (CatG),IC50 [1] [nM],IC50 [2] [nM],IC50 [3] [nM],IC50 [4] [nM],IC50 [5] [nM],IC50 [6] [nM],"IC50 [1, 7] [nM]","IC50 [2, 8] [nM]","IC50 [3, 9] [nM]","IC50 [4, 10] [nM]","IC50 [5, 11] [nM]","IC50 [6, 12] [nM]","uPA IC50 [2, 13]","CatG IC50 [4, 13]"
"C#CCCCOC(=O)NC(c1ccc(NC(=N)N)cc1)P(=O)(Oc1ccc(Cl)cc1)Oc1ccc(Cl)cc1 (centres unmarked) [39b, Pent-4-yn-1-yl ((bis(4-chlorophenoxy)phosphoryl)(4-guanidinophenyl)methyl)carbamate]",Rev.,70 ± 4,220 ± 60,> 10000,90 ± 22,90 ± 9,> 10000,–,–,–,–,–,–,–,–
CC(=O)Nc1ccc(OP(=O)(Oc2ccc(NC(C)=O)cc2)C(Cc2ccc(NC(=N)N)cc2)NC(=O)OCCCc2cn(CCOCCOCCOCCNC(=O)CCCCC[C@H]3NC(=O)N[C@H]3C)nn2)cc1 (some centres unmarked) [52b],Rev.,70 ± 3,10 ± 3,760 ± 20,50 ± 7,10 ± 1,> 10000,–,–,–,–,–,–,–,–
CC(=O)Nc1ccc(OP(=O)(Oc2ccc(NC(C)=O)cc2)C(NC(=O)OCCCc2cn(CCOCCOCCOCCNC(=O)CCCCC[C@H]3NC(=O)N[C@H]3C)nn2)c2ccc(NC(=N)N)cc2)cc1 (some centres unmarked) [56b],Irrev.,–,–,–,–,–,–,390 ± 100,5190 ± 80,> 10000,620 ± 9,220 ± 4,> 10000,–,–
"C#CCCCOC(=O)NC(c1ccc(NC(=N)N)cc1)P(=O)(Oc1ccc(NC(C)=O)cc1)Oc1ccc(NC(C)=O)cc1 (centres unmarked) [38b, Pent-4-yn-1-yl ((bis(4-acetamidophenoxy)phosphoryl)(4-guanidinophenyl)methyl) carbamate]",Irrev.,120 ± 20,1520 ± 400,> 10000,130 ± 10,40 ± 15,> 10000,–,–,–,–,–,–,–,–
C#CCCCOC(=O)NC(Cc1ccc(NC(=N)N)cc1)P(=O)(Oc1ccccc1)Oc1ccccc1 (centres unmarked) [34b],Rev.,630 ± 30,–,8490 ± 2250,450 ± 20,1 ± 0.3,> 10000,–,–,–,–,–,–,–,–
C#CCCCOC(=O)NC(CCCNC(=N)N)P(=O)(Oc1ccc(Cl)cc1)Oc1ccc(Cl)cc1 (centres unmarked) [33b],Rev.,170 ± 10,250 ± 30,110 ± 7,2760 ± 50,40 ± 8,> 10000,–,–,–,–,–,–,–,–
C[C@@H]1NC(=O)N[C@@H]1CCCCCC(=O)NCCOCCOCCOCCn1cc(CCCOC(=O)NC(CCCNC(=N)N)P(=O)(Oc2ccccc2)Oc2ccccc2)nn1 (some centres unmarked) [45b],–,–,–,–,–,–,–,800 ± 50,> 10000,610 ± 170,> 10000,220 ± 20,> 10000,–,–
C[C@@H]1NC(=O)N[C@@H]1CCCCCC(=O)NCCOCCOCCOCCn1cc(CCCOC(=O)NC(c2ccc(NC(=N)N)cc2)P(=O)(Oc2ccc(Cl)cc2)Oc2ccc(Cl)cc2)nn1 (some centres unmarked) [57b],Rev.,–,–,–,–,–,–,20 ± 0.2,160 ± 40,> 10000,120 ± 40,180 ± 70,> 10000,–,–
"C[C@@H]1NC(=O)N[C@@H]1CCCCCC(=O)NCCOCCOCCOCCn1cc(CCCOC(=O)NC(Cc2ccc(NC(=N)N)cc2)P(=O)(Oc2ccccc2)Oc2ccccc2)nn1 (stereo partly drawn) [50b, 3-(1-(18-((4R,5S)-5-methyl-2-oxoimidazolidin-4-yl)-13-oxo-3,6,9-trioxa-12-azaoctadecyl)-1H-1,2,3-triazol-4-yl)propyl (1-(diphenoxyphosphoryl)-2-(4-guanidinophenyl)ethyl)carbamate trifluoroacetate salt]",Rev.,360 ± 70,20 ± 0.1,3520 ± 390,360 ± 4,30 ± 10,1640 ± 500,–,–,–,–,–,–,–,–
C#CCCCOC(=O)NC(C1CCN(C(=N)N)CC1)P(=O)(Oc1ccccc1)Oc1ccccc1 (centres unmarked) [41b],–,8370 ± 440,> 10000,30 ± 1,> 10000,40 ± 2,> 10000,–,–,–,–,–,–,no inhibition,no inhibition
C[C@@H]1NC(=O)N[C@@H]1CCCCCC(=O)NCCOCCOCCOCCn1cc(CCCOC(=O)NC(CCCNC(=N)N)P(=O)(Oc2ccc(Cl)cc2)Oc2ccc(Cl)cc2)nn1 (some centres unmarked) [46b],–,–,–,–,–,–,–,40 ± 6,420 ± 50,40 ± 6,> 10000,70 ± 2,> 10000,–,–
C#CCCCOC(=O)NC(Cc1ccc(NC(=N)N)cc1)P(=O)(Oc1ccc(Cl)cc1)Oc1ccc(Cl)cc1 (centres unmarked) [36b],Rev.,70 ± 20,5 ± 0.3,1770 ± 50,340 ± 8,< 1,3230 ± 1210,–,–,–,–,–,–,–,–
C[C@@H]1NC(=O)N[C@@H]1CCCCCC(=O)NCCOCCOCCOCCn1cc(CCCOC(=O)NC(c2ccc(NC(=N)N)cc2)P(=O)(Oc2ccccc2)Oc2ccccc2)nn1 (some centres unmarked) [55b],Irrev.,–,–,–,–,–,–,370 ± 90,2220 ± 70,> 10000,1620 ± 90,240 ± 10,> 10000,–,–
